This assay deals with T1, HEK cells stably transfected with tetracycline inducible hNR1 and hNR2A (Homo sapiens, UniProt Q05586+Q12879).
T1 construct: expressed in transfected cells; host or cells: HEK cells, stably transfected, tetracycline/doxycycline inducible
In words: Assay 1: Cell-Based Assay, cytosolic calcium response to positive allosteric modulators (with 30 μM glycine and 300 nM L-glutamate, EC30). To be noted: for EC50: cytosolic calcium response, with 30 μM glycine and 300 nM L-glutamate (EC30), — = no plateau was reached; for Max %: responses scaled relative to 100 μM L-glutamate maximal response (100%) and 0 μM L-glutamate (0%). The essentials:
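Cells induced 24 h with 7.5 μg mL^−1 doxycycline plus 500 μM (+)-ketamine, loaded 60 min at 37 °C with calcium dye in Mg-free HBSS (1.8 mM Ca, probenecid, 10 μM (+)-ketamine, pH 7.15). Peak RFU over 5 min after compound addition, scaled to 100 μM L-glutamate (100%) and 0 μM (0%); four-parameter Hill fit for EC50, max % if no plateau.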

T1 sequence (Q12879 23-1464, other chains not shown): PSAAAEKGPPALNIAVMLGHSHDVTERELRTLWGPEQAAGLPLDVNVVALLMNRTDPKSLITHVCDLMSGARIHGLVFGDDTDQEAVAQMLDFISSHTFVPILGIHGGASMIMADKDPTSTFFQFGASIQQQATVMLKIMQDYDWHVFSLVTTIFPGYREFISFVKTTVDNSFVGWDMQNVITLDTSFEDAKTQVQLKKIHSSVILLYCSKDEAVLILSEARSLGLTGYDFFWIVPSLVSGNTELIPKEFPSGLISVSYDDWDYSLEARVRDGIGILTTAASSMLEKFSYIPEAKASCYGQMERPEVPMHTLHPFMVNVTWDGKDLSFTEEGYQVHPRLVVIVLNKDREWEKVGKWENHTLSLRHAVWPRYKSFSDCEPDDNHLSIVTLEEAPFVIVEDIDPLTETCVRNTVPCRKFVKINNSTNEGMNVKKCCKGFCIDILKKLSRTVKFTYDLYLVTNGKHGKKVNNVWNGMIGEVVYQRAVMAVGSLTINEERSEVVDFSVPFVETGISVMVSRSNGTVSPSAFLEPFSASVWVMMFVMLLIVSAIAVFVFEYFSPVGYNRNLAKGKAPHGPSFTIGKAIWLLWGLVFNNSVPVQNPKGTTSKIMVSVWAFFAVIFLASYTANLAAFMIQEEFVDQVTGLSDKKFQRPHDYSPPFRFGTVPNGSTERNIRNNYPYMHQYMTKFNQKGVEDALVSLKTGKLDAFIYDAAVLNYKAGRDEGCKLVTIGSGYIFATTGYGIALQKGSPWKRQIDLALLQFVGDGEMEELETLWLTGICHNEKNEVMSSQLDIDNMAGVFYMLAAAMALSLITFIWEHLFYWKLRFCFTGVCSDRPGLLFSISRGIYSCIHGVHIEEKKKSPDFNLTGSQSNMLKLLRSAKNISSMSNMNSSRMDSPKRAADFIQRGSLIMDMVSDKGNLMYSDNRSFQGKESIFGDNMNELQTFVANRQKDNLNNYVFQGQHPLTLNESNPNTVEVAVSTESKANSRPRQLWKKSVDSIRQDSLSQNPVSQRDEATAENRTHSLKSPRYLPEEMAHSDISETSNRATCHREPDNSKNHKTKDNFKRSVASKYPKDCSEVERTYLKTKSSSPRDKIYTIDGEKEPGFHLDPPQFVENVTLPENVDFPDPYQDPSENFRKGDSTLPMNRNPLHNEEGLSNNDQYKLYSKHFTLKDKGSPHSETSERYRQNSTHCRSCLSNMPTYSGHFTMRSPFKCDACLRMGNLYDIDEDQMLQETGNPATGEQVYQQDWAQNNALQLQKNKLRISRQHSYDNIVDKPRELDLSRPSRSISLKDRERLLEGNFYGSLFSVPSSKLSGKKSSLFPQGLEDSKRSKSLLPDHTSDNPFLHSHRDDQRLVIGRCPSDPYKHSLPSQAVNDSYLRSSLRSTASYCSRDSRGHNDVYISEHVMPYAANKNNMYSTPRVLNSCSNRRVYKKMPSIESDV

As to `CCN(Cc1cc(=O)n2c(C(C)(C)O)csc2n1)c1ccc(F)cc1` [Example 10.19, 7-[(N-ethyl-4-fluoro-anilino)methyl]-3-(1-hydroxy-1-methyl-ethyl)thiazolo[3,2-a]pyrimidin-5-one], for the setting “Table 2”, the EC50 turned out to be 0.837 µM and the Max % is recorded as 165%.

`CCN(Cc1cc(=O)n2c(CN3CCC3)c(C)sc2n1)c1ccc(F)cc1` [Example 10.8, 3-(azetidin-1-ylmethyl)-7-[(N-ethyl-4-fluoro-anilino)methyl]-2-methyl-thiazolo[3,2-a]pyrimidin-5-one]: the Max % (Table 2) is recorded as 63.5%.

Consider `Cc1sc2nc(COc3ccc(F)cc3)cc(=O)n2c1C(=O)NC1CC1` [Example 1.15, N-cyclopropyl-7-((4-fluorophenoxy)methyl)-2-methyl-5-oxo-5H-thiazolo[3,2-a]pyrimidine-3-carboxamide], for which the Max % (Table 2) is 55.1%.

Turning to `CNC(=O)c1csc2nc(COc3ccc(F)cc3)cc(=O)n12` [Example 3.5, 7-((4-fluorophenoxy)methyl)-N-methyl-5-oxo-5H-thiazolo[3,2-a]pyrimidine-3-carboxamide], the Max % (Table 2) amounted to 65.6%.

On to `O=c1cc(Cn2nc(Cl)cc2C(F)(F)F)nc2sc(C(F)(F)F)c(-c3cccnc3)n12` [compound 173, 7-[[3-chloro-5-(trifluoromethyl)pyrazol-1-yl]methyl]-3-(3-pyridyl)-2-(trifluoromethyl)thiazolo[3,2-a]pyrimidin-5-one], for which the EC50 (Table 3) was 24.7 µM.

`N#CC1CC1c1csc2nc(Cn3nc(C(F)(F)F)cc3Cl)cc(=O)n12` (centres unmarked) [compound 241, 2-[7-[[5-chloro-3-(trifluoromethyl)pyrazol-1-yl]methyl]-5-oxo-thiazolo[3,2-a]pyrimidin-3-yl]cyclopropanecarbonitrile]: the EC50 (Table 3) came to 0.313 µM.

As for `Cc1sc2nc(C(C)n3nc(C(F)(F)F)cc3C3CC3)cc(=O)n2c1[C@@H]1C[C@H]1CO` (relative stereo) [Example 19.1, 7-(1-(5-cyclopropyl-3-(trifluoromethyl)-1H-pyrazol-1-yl)ethyl)-3-(trans-2-(hydroxymethyl)cyclopropyl)-2-methyl-5H-thiazolo[3,2-a]pyrimidin-5-one], for the setting “Table 2”, the EC50 amounted to 12.2 µM and the Max % is given as 116%.

Turning to `CCNC(=O)c1c(C)sc2nc(COc3ccc(F)cn3)cc(=O)n12` [Example 3.6, N-ethyl-7-[[(5-fluoropyridin-2-yl)oxy]methyl]-2-methyl-5-oxo-5H-[1,3]thiazolo[3,2-a]pyrimidine-3-carboxamide], where the note is “Table 2”, the Max % amounted to 68%.

With `CCC(C)NC(=O)c1c(C)sc2nc(Cc3cccc(C(F)(F)F)c3F)cc(=O)n12` (centres unmarked) [compound 112, 7-[[2-fluoro-3-(trifluoromethyl)phenyl]methyl]-2-methyl-5-oxo-N-sec-butyl-thiazolo[3,2-a]pyrimidine-3-carboxamide], the EC50 (Table 3) stood at 0.825 µM.

With `CNC(=O)Cc1c(C)sc2nc(COc3ccc(F)cc3)cc(=O)n12` [Example 2.6, 2-(7-((4-fluorophenoxy)methyl)-2-methyl-5-oxo-5H-thiazolo[3,2-a]pyrimidin-3-yl)-N-methylacetamide], where the note is “Table 2”, the EC50 stood at 19.6 µM and the Max % is on record as 59.9%.

As to `CCNC(=O)c1c(C2CC2)sc2nc(Cn3nc(C(F)(F)F)cc3C3CC3)cc(=O)n12` [Example 16.6, 2-cyclopropyl-7-((5-cyclopropyl-3-(trifluoromethyl)-1H-pyrazol-1-yl)methyl)-N-ethyl-5-oxo-5H-thiazolo[3,2-a]pyrimidine-3-carboxamide], where the note is “Table 2”, the EC50 is 5.5 µM and the Max % turned out to be 140%.

Take `CCNC(=O)c1c(C)sc2nc(Cc3c(F)ccc(F)c3F)cc(=O)n12` [compound 2, N-ethyl-2-methyl-5-oxo-7-[(2,3,6-trifluorophenyl)methyl]thiazolo[3,2-a]pyrimidine-3-carboxamide]: under “Table 3”, the EC50 worked out at 33.7 µM.

Consider `CCNC(=O)c1csc2nc(Cc3cccc(C#N)c3F)cc(=O)n12` [Example 21.33, 7-(3-cyano-2-fluorobenzyl)-N-ethyl-5-oxo-5H-thiazolo[3,2-a]pyrimidine-3-carboxamide], for which the Max % (Table 2) amounted to 82.5%.

As to `CCN(Cc1cc(=O)n2c(CS(C)(=O)=O)c(C)sc2n1)c1ccc(F)cc1` [Example 10.15, 7-[(N-ethyl-4-fluoro-anilino)methyl]-2-methyl-3-(methylsulfonylmethyl)thiazolo[3,2-a]pyrimidin-5-one], where the note is “Table 2”, the concentration for a half-maximal effect (EC50) was determined as 1.3 µM and the Max % is listed as 156%.

`Cc1sc2nc(COc3ccc(F)cc3)cc(=O)n2c1C(C)CCO` (centres unmarked) [Example 4.33, 7-(4-Fluorophenoxymethyl)-3-(4-hydroxybutan-2-yl)-2-methyl-5H-[1,3]thiazolo[3,2-a]pyrimidin-5-one]: where the note is “Table 2”, the EC50 turned out to be 13.8 µM and the Max % was 121%.

For the molecule `CCN(Cc1cc(=O)n2c(/C=C/C#N)c(C)sc2n1)c1ccc(F)cc1` [compound 279, (E)-3-[7-[(N-ethyl-4-fluoro-anilino)methyl]-2-methyl-5-oxo-thiazolo[3,2-a]pyrimidin-3-yl]prop-2-enenitrile], the EC50 (Table 3) came out at 1.82 µM.

As to `CCNC(=O)c1c(C)sc2nc(Cc3cccc(OC)c3F)cc(=O)n12` [compound 5, N-ethyl-7-[(2-fluoro-3-methoxy-phenyl)methyl]-2-methyl-5-oxo-thiazolo[3,2-a]pyrimidine-3-carboxamide], where the note is “Table 3”, the EC50 is 15.1 µM.

In the case of `Cc1sc2nc(Cn3nc(C(F)(F)F)cc3C3CC3)cc(=O)n2c1[C@@H]1C[C@H]1CO` (relative stereo) [Example 15.11, 7-((5-cyclopropyl-3-(trifluoromethyl)-1H-pyrazol-1-yl)methyl)-3-(trans-2-(hydroxymethyl)cyclopropyl)-2-methyl-5H-thiazolo[3,2-a]pyrimidin-5-one], under “Table 2”, the EC50 came to 0.151 µM and the Max % worked out at 159%.

For the molecule `Cc1sc2nc(Cc3cccc(C(F)(F)F)c3F)cc(=O)n2c1-c1ncc[nH]1` [compound 47, 7-[[2-fluoro-3-(trifluoromethyl)phenyl]methyl]-3-(1H-imidazol-2-yl)-2-methyl-thiazolo[3,2-a]pyrimidin-5-one], the EC50 (Table 3) worked out at 5.14 µM.

Take `Cc1sc2nc(COc3ccc(F)cc3)c(F)c(=O)n2c1[C@@H]1C[C@H]1CO` (relative stereo) [Example 4.29, 6-fluoro-7-((4-fluorophenoxy)methyl)-3-(trans-2-(hydroxymethyl)cyclopropyl)-2-methyl-5H-thiazolo[3,2-a]pyrimidin-5-one]: under “Table 2”, the EC50 worked out at 17.5 µM and the Max % turned out to be 134%.

Consider `CC(=O)c1c(C(F)(F)F)sc2nc(Cn3nc(Cl)cc3C(F)(F)F)cc(=O)n12` [compound 167, 3-acetyl-7-[[3-chloro-5-(trifluoromethyl)pyrazol-1-yl]methyl]-2-(trifluoromethyl)thiazolo[3,2-a]pyrimidin-5-one], for which, under “Table 3”, the EC50 was determined as 5.26 µM.

Consider `O=c1cc(Cn2nc(C(F)(F)F)cc2Cl)nc2sc(C(F)(F)F)c(-c3cncnc3)n12` [compound 171, 7-[[5-chloro-3-(trifluoromethyl)pyrazol-1-yl]methyl]-3-pyrimidin-5-yl-2-(trifluoromethyl)thiazolo[3,2-a]pyrimidin-5-one], for which the EC50 (Table 3) came out at 1.21 µM.

With `CCN(Cc1cc(=O)n2c(COC)c(C)sc2n1)c1ccc(F)cc1` [Example 10.13, 7-[[ethyl(4-fluorophenyl)amino]methyl]-3-(methoxymethyl)-2-methyl-5H-[1,3]thiazolo[3,2-a]pyrimidin-5-one], for the setting “Table 2”, the EC50 came out at 0.345 µM and the Max % is listed as 165%.

As for `Cc1sc2nc(Cn3nc(C)c4cc(F)ccc43)cc(=O)n2c1C(C)O` (centres unmarked) [Example 18.5, 7-((5-fluoro-3-methyl-1H-indazol-1-yl)methyl)-3-(1-hydroxyethyl)-2-methyl-5H-thiazolo[3,2-a]pyrimidin-5-one], the Max % (Table 2) came to 40.7%.

For `Cc1sc2nc(COc3ccc(F)c(F)c3)cc(=O)n2c1[C@@H]1C[C@H]1CO` (relative stereo) [Example 4.7, 7-(3,4-Difluorophenoxymethyl)-3-[trans-2-(hydroxymethyl)cyclopropyl]-2-methyl-5H-[1,3]thiazolo[3,2-a]pyrimidin-5-one], where the note is “Table 2”, the EC50 worked out at 5.8 µM and the Max % was 134%.

Consider `C/C(=N\O)c1c(C)sc2nc(COc3ccc(F)cc3)cc(=O)n12` [Example 2.8, 7-(4-Fluorophenoxymethyl)-3-[1-(hydroxyimino)ethyl]-2-methyl-5H-[1,3]thiazolo[3,2-a]pyrimidin-5-one], for which the Max % (Table 2) was found to be 137%.

`Cc1sc2nc(CNc3ccc(F)cc3)cc(=O)n2c1-c1cncnc1` [Example 5.13, 7-((4-fluorophenylamino)methyl)-2-methyl-3-(pyrimidin-5-yl)-5H-thiazolo[3,2-a]pyrimidin-5-one]: the Max % (Table 2) came to 87.9%.

Take `CNC(=O)c1c(C2CC2)sc2nc(COc3ccc(F)cc3)cc(=O)n12` [Example 3.3, 2-Cyclopropyl-7-(4-fluorophenoxymethyl)-N-methyl-5-oxo-5H-[1,3]thiazolo[3,2-a]pyrimidine-3-carboxamide]: the Max % (Table 2) was found to be 61.8%.

As for `CNC(=O)c1c(C(F)(F)F)sc2nc(Cc3cccc(C(F)(F)F)c3F)cc(=O)n12` [compound 63, 7-[[2-fluoro-3-(trifluoromethyl)phenyl]methyl]-N-methyl-5-oxo-2-(trifluoromethyl)thiazolo[3,2-a]pyrimidine-3-carboxamide], where the note is “Table 3”, the EC50 turned out to be 3.71 µM.

`CCNC(=O)c1c(C)sc2nc(COc3ccc(F)cc3)cc(=O)n12` [Example 1.4, N-ethyl-7-(4-fluorophenoxymethyl)-2-methyl-5-oxo-5H-[1,3]thiazolo[3,2-a] pyrimidine-3-carboxamide]: where the note is “Table 2”, the EC50 amounted to 11.2 µM and the Max % came out at 59.5%.

For the origin of these results see patent US9988400B2 (Genentech, Inc., priority 2013, dated 2018).
